Measurements from patent US7138361B2, “Herbicidal heterocycles” (E. I. du Pont de Nemours and Company, priority 2000, dated 2006).

Key:
Assay type in all cases: in vivo
[1] = system: giant foxtail (Setaria faberii); assay: Test B postemergence; settings: 13 to 15 days
In short: (§1)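 Greenhouse test: chemicals are formulated in a surfactant-containing non-phytotoxic solvent and applied either preemergence to planted seeds or postemergence to plants 2 to 18 cm tall. Response is rated visually versus controls after 13 to 15 days, 0 meaning no effect and 100 complete control.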

wild oat (Avena fatua) = assay: Test B postemergence; settings: 13 to 15 days
In short: as §1

corn (Zea mays) [2] = assay: Test B postemergence; settings: 13 to 15 days
In short: as §1

[3] = system: barnyardgrass (Echinochloa crus-galli); assay: Test B postemergence; settings: 13 to 15 days
In short: as §1

[4] = system: wheat (Triticum aestivum); assay: Test B postemergence; settings: 13 to 15 days
In short: as §1

[5] = system: lambsquarters (Chenopodium album); assay: Test B postemergence; settings: 13 to 15 days
In short: as §1

[6] = system: blackgrass (Alopecurus myosuroides); assay: Test B postemergence; settings: 13 to 15 days
In short: as §1

[7] = system: cocklebur (Xanthium strumarium); assay: Test B postemergence; settings: 13 to 15 days
In short: as §1

[8] = system: crabgrass (Digitaria sanguinalis); assay: Test B postemergence; settings: 13 to 15 days
In short: as §1

[9] = system: velvetleaf (Abutilon theophrasti); assay: Test B postemergence; settings: 13 to 15 days
In short: as §1

[10] = system: Surinam grass (Brachiaria decumbens); assay: Test B postemergence; settings: 13 to 15 days
In short: as §1

[11] = system: pigweed (Amaranthus retroflexus); assay: Test B postemergence; settings: 13 to 15 days
In short: as §1

[12] = system: morning glory (Ipomoea hederacea); assay: Test B postemergence; settings: 13 to 15 days
In short: as §1

Nightshade = assay: Test C preemergence; settings: Rate 500 g/ha, visual evaluation after 12 to 14 days
[13] = system: giant foxtail (Setaria faberii); assay: Test B preemergence
In short: as §1

corn (Zea mays) [14] = assay: Test B preemergence
In short: as §1

[15] = system: barnyardgrass (Echinochloa crus-galli); assay: Test B preemergence
In short: as §1

rice (Oryza saliva) = assay: Test B preemergence
In short: as §1

[16] = system: lambsquarters (Chenopodium album); assay: Test B preemergence
In short: as §1

[17] = system: cocklebur (Xanthium strumarium); assay: Test B preemergence
In short: as §1

[18] = system: crabgrass (Digitaria sanguinalis); assay: Test B preemergence
In short: as §1

[19] = system: velvetleaf (Abutilon theophrasti); assay: Test B preemergence
In short: as §1

[20] = system: Surinam grass (Brachiaria decumbens); assay: Test B preemergence
In short: as §1

[21] = system: pigweed (Amaranthus retroflexus); assay: Test B preemergence
In short: as §1

[22] = system: morning glory (Ipomoea hederacea); assay: Test B preemergence
In short: as §1

Sunflower = assay: Test C preemergence; settings: Rate 250 g/ha, scale 0 to 100, 0 no effect, 100 complete control
[23] = Rate 125 g/ha, scale 0 (no effect) to 100 (complete control)
[24] = Rate 500 g/ha, scale 0 to 100, 0 is no effect, 100 is complete control
[25] = Preemergence, Rate 500 g/ha, scale 0 to 100, 0 no effect, 100 complete control
[26] = preemergence, Rate 125 g/ha, scale of 0 to 100 where 0 is no effect and 100 is complete control, 13 to 15 days

CC(C)(C)c1ccn(C2CCN(c3ccc(F)c(Br)c3)C2=O)n1 (centres unmarked) [Compound 75]
Plant response rating, Foxtail, Giant [1, 23]: 0
Plant response rating, Foxtail, Giant [1, 24]: 0
Plant response rating, Wild Oat (wild oat (Avena fatua); [23]): 0
Plant response rating, Wild Oat (wild oat (Avena fatua); [24]): 0
Plant response rating, Corn (corn (Zea mays) [2]; [23]): 0
Plant response rating, Corn (corn (Zea mays) [2]; [24]): 0
Plant response rating, Barnyardgrass [3, 23]: 0
Plant response rating, Barnyardgrass [3, 24]: 0
Plant response rating, Wheat [4, 23]: 0
Plant response rating, Wheat [4, 24]: 0
Plant response rating, Lambsquarters [5, 23]: 70
Plant response rating, Lambsquarters [5, 24]: 80
Plant response rating, Blackgrass [6, 23]: 0
Plant response rating, Blackgrass [6, 24]: 0
Plant response rating, Cocklebur [7, 23]: 0
Plant response rating, Cocklebur [7, 24]: 0
Plant response rating, Crabgrass [8, 23]: 0
Plant response rating, Crabgrass [8, 24]: 0
Plant response rating, Velvetleaf [9, 23]: 0
Plant response rating, Velvetleaf [9, 24]: 50
Plant response rating, Surinam grass [10, 23]: 0
Plant response rating, Surinam grass [10, 24]: 0
Plant response rating, Pigweed [11, 23]: 50
Plant response rating, Pigweed [11, 24]: 90
Plant response rating, Morningglory [12, 23]: 20
Plant response rating, Morningglory [12, 24]: 60
Plant response rating (0 to 100), Nightshade (Nightshade): 50
Plant response rating, Foxtail, Giant [13, 25]: 100
Plant response rating, Foxtail, Giant [13, 26]: 100
Plant response rating, Corn (corn (Zea mays) [14]; [25]): 20
Plant response rating, Corn (corn (Zea mays) [14]; [26]): 0
Plant response rating, Barnyardgrass [15, 25]: 100
Plant response rating, Barnyardgrass [15, 26]: 100
Plant response rating, Rice (rice (Oryza saliva); [25]): 70
Plant response rating, Rice (rice (Oryza saliva); [26]): 50
Plant response rating, Lambsquarters [16, 25]: 100
Plant response rating, Lambsquarters [16, 26]: 100
Plant response rating, Cocklebur [17, 25]: 70
Plant response rating, Cocklebur [17, 26]: 30
Plant response rating, Crabgrass [18, 25]: 100
Plant response rating, Crabgrass [18, 26]: 100
Plant response rating, Velvetleaf [19, 25]: 70
Plant response rating, Velvetleaf [19, 26]: 50
Plant response rating, Surinam grass [20, 25]: 100
Plant response rating, Surinam grass [20, 26]: 60
Plant response rating, Pigweed [21, 25]: 100
Plant response rating, Pigweed [21, 26]: 100
Plant response rating, Morningglory [22, 25]: 0
Plant response rating, Morningglory [22, 26]: 0
Plant response rating, Sunflower (Sunflower): 0

CC(C)(C)c1ccn(C2CCN(c3cccc(OC(F)F)c3)C2=O)n1 (centres unmarked) [Compound 76]
Plant response rating, Foxtail, Giant [1, 23]: 0
Plant response rating, Foxtail, Giant [1, 24]: 30
Plant response rating, Wild Oat (wild oat (Avena fatua); [23]): 0
Plant response rating, Wild Oat (wild oat (Avena fatua); [24]): 0
Plant response rating, Corn (corn (Zea mays) [2]; [23]): 0
Plant response rating, Corn (corn (Zea mays) [2]; [24]): 0
Plant response rating, Barnyardgrass [3, 23]: 0
Plant response rating, Barnyardgrass [3, 24]: 90
Plant response rating, Wheat [4, 23]: 0
Plant response rating, Wheat [4, 24]: 0
Plant response rating, Lambsquarters [5, 23]: 0
Plant response rating, Lambsquarters [5, 24]: 40
Plant response rating, Blackgrass [6, 23]: 0
Plant response rating, Blackgrass [6, 24]: 0
Plant response rating, Cocklebur [7, 23]: 0
Plant response rating, Cocklebur [7, 24]: 20
Plant response rating, Crabgrass [8, 23]: 0
Plant response rating, Crabgrass [8, 24]: 40
Plant response rating, Velvetleaf [9, 23]: 0
Plant response rating, Velvetleaf [9, 24]: 0
Plant response rating, Surinam grass [10, 23]: 0
Plant response rating, Surinam grass [10, 24]: 10
Plant response rating, Pigweed [11, 23]: 30
Plant response rating, Pigweed [11, 24]: 80
Plant response rating, Morningglory [12, 23]: 0
Plant response rating, Morningglory [12, 24]: 20
Plant response rating (0 to 100), Nightshade (Nightshade): 60
Plant response rating, Foxtail, Giant [13, 25]: 100
Plant response rating, Foxtail, Giant [13, 26]: 100
Plant response rating, Corn (corn (Zea mays) [14]; [25]): 70
Plant response rating, Corn (corn (Zea mays) [14]; [26]): 0
Plant response rating, Barnyardgrass [15, 25]: 100
Plant response rating, Barnyardgrass [15, 26]: 100
Plant response rating, Rice (rice (Oryza saliva); [25]): 90
Plant response rating, Rice (rice (Oryza saliva); [26]): 70
Plant response rating, Lambsquarters [16, 25]: 100
Plant response rating, Lambsquarters [16, 26]: 100
Plant response rating, Cocklebur [17, 25]: 0
Plant response rating, Cocklebur [17, 26]: 0
Plant response rating, Crabgrass [18, 25]: 100
Plant response rating, Crabgrass [18, 26]: 100
Plant response rating, Velvetleaf [19, 25]: 0
Plant response rating, Velvetleaf [19, 26]: 0
Plant response rating, Surinam grass [20, 25]: 100
Plant response rating, Surinam grass [20, 26]: 80
Plant response rating, Pigweed [21, 25]: 100
Plant response rating, Pigweed [21, 26]: 100
Plant response rating, Morningglory [22, 25]: 100
Plant response rating, Morningglory [22, 26]: 0
Plant response rating, Sunflower (Sunflower): 30

Cc1ccc(N2CCC(n3ccc(C(C)(C)C)n3)C2=O)cc1OC(F)F (centres unmarked) [Compound 79]
Plant response rating, Foxtail, Giant [1, 23]: 0
Plant response rating, Foxtail, Giant [1, 24]: 0
Plant response rating, Wild Oat (wild oat (Avena fatua); [23]): 0
Plant response rating, Wild Oat (wild oat (Avena fatua); [24]): 0
Plant response rating, Corn (corn (Zea mays) [2]; [23]): 0
Plant response rating, Corn (corn (Zea mays) [2]; [24]): 0
Plant response rating, Barnyardgrass [3, 23]: 0
Plant response rating, Barnyardgrass [3, 24]: 0
Plant response rating, Wheat [4, 23]: 0
Plant response rating, Wheat [4, 24]: 0
Plant response rating, Lambsquarters [5, 23]: 0
Plant response rating, Lambsquarters [5, 24]: 10
Plant response rating, Blackgrass [6, 23]: 0
Plant response rating, Blackgrass [6, 24]: 0
Plant response rating, Cocklebur [7, 23]: 30
Plant response rating, Cocklebur [7, 24]: 30
Plant response rating, Crabgrass [8, 23]: 0
Plant response rating, Crabgrass [8, 24]: 0
Plant response rating, Velvetleaf [9, 23]: 0
Plant response rating, Velvetleaf [9, 24]: 0
Plant response rating, Surinam grass [10, 23]: 0
Plant response rating, Surinam grass [10, 24]: 0
Plant response rating, Pigweed [11, 23]: 70
Plant response rating, Pigweed [11, 24]: 70
Plant response rating, Morningglory [12, 23]: 30
Plant response rating, Morningglory [12, 24]: 40
Plant response rating (0 to 100), Nightshade (Nightshade): 90
Plant response rating, Foxtail, Giant [13, 25]: 60
Plant response rating, Foxtail, Giant [13, 26]: 0
Plant response rating, Corn (corn (Zea mays) [14]; [25]): 0
Plant response rating, Corn (corn (Zea mays) [14]; [26]): 0
Plant response rating, Barnyardgrass [15, 25]: 100
Plant response rating, Barnyardgrass [15, 26]: 70
Plant response rating, Rice (rice (Oryza saliva); [25]): 90
Plant response rating, Rice (rice (Oryza saliva); [26]): 50
Plant response rating, Lambsquarters [16, 25]: 100
Plant response rating, Lambsquarters [16, 26]: 100
Plant response rating, Cocklebur [17, 25]: 0
Plant response rating, Cocklebur [17, 26]: 0
Plant response rating, Crabgrass [18, 25]: 100
Plant response rating, Crabgrass [18, 26]: 100
Plant response rating, Velvetleaf [19, 25]: 90
Plant response rating, Velvetleaf [19, 26]: 0
Plant response rating, Surinam grass [20, 25]: 90
Plant response rating, Surinam grass [20, 26]: 70
Plant response rating, Pigweed [21, 25]: 100
Plant response rating, Pigweed [21, 26]: 100
Plant response rating, Morningglory [22, 25]: 100
Plant response rating, Morningglory [22, 26]: 0
Plant response rating, Sunflower (Sunflower): 50

CCC(C)c1ccn(C2CCN(c3ccc(C)c(OC)c3)C2=O)n1 (centres unmarked) [Compound 80]
Plant response rating, Foxtail, Giant [1, 23]: 0
Plant response rating, Foxtail, Giant [1, 24]: 0
Plant response rating, Wild Oat (wild oat (Avena fatua); [23]): 0
Plant response rating, Wild Oat (wild oat (Avena fatua); [24]): 0
Plant response rating, Corn (corn (Zea mays) [2]; [23]): 0
Plant response rating, Corn (corn (Zea mays) [2]; [24]): 0
Plant response rating, Barnyardgrass [3, 23]: 0
Plant response rating, Barnyardgrass [3, 24]: 10
Plant response rating, Wheat [4, 23]: 0
Plant response rating, Wheat [4, 24]: 0
Plant response rating, Lambsquarters [5, 23]: 10
Plant response rating, Lambsquarters [5, 24]: 90
Plant response rating, Blackgrass [6, 23]: 0
Plant response rating, Blackgrass [6, 24]: 0
Plant response rating, Cocklebur [7, 23]: 70
Plant response rating, Cocklebur [7, 24]: 80
Plant response rating, Crabgrass [8, 23]: 0
Plant response rating, Crabgrass [8, 24]: 40
Plant response rating, Velvetleaf [9, 23]: 40
Plant response rating, Velvetleaf [9, 24]: 70
Plant response rating, Surinam grass [10, 23]: 0
Plant response rating, Surinam grass [10, 24]: 0
Plant response rating, Pigweed [11, 23]: 70
Plant response rating, Pigweed [11, 24]: 80
Plant response rating, Morningglory [12, 23]: 40
Plant response rating, Morningglory [12, 24]: 90
Plant response rating (0 to 100), Nightshade (Nightshade): 100
Plant response rating, Foxtail, Giant [13, 25]: 100
Plant response rating, Foxtail, Giant [13, 26]: 100
Plant response rating, Corn (corn (Zea mays) [14]; [25]): 20
Plant response rating, Corn (corn (Zea mays) [14]; [26]): 0
Plant response rating, Barnyardgrass [15, 25]: 100
Plant response rating, Barnyardgrass [15, 26]: 0
Plant response rating, Rice (rice (Oryza saliva); [25]): 90
Plant response rating, Rice (rice (Oryza saliva); [26]): 60
Plant response rating, Lambsquarters [16, 25]: 100
Plant response rating, Lambsquarters [16, 26]: 100
Plant response rating, Cocklebur [17, 25]: 0
Plant response rating, Cocklebur [17, 26]: 0
Plant response rating, Crabgrass [18, 25]: 100
Plant response rating, Crabgrass [18, 26]: 100
Plant response rating, Velvetleaf [19, 25]: 70
Plant response rating, Velvetleaf [19, 26]: 0
Plant response rating, Surinam grass [20, 25]: 90
Plant response rating, Surinam grass [20, 26]: 80
Plant response rating, Pigweed [21, 25]: 100
Plant response rating, Pigweed [21, 26]: 100
Plant response rating, Morningglory [22, 25]: 100
Plant response rating, Morningglory [22, 26]: 60
Plant response rating, Sunflower (Sunflower): 60
